From patent publication US20230053649A1 (Cedilla Therapeutics, Inc., priority 2021, published 2023)

Experiments:
[1] = tested on: mesothelioma cell line NCI-H226; test: 72H TEAD Proliferation Assay (Cell Titer-Glo 2.0); type: cell-based; details: Homo sapiens, CTG 2.0, cell line not given in Table 1 (NCI-H226 TEAD-responsive, NCI-H28 non-responsive counter-screen)
Procedure: 72H TEAD Proliferation Assay.
The effect of TEAD inhibition on cell proliferation was assayed using Cell Titer Glo (CTG) 2.0 to measure response in mesothelioma cell lines NCI-H226 (ATCC, #CRL-5826) and NCI-H28 (ATCC, #CRL-5820).
The 72H TEAD Proliferation assay utilizes Cell Titer-Glo 2.0 (Promega, #G9243) to measure the proliferation of cells in the presence or absence of compound. Cell Titer-Glo 2.0 determines the amount of viable cells by quantifying ATP (an indication of metabolically active cells). It utilizes the conversion of Luciferin to Oxyluciferin and a luminescent signal with the use of ATP to report the quantity of viable cells in culture. Within cells that are continually growing, ATP is being synthesized to meet their metabolic demands, meanwhile the opposite is true for cells that are dying or slowing down their proliferation and either no longer using ATP or are using less, respectively. The NF2-deficient NCI-H226 has been genetically validated as a cell line that is sensitive to TEAD inhibition. The NF2-wild type NCI-H28 has been genetically validated as a cell line that is not sensitive to TEAD inhibition and grows independently of TEAD activity.
Compounds were screened against the responsive NCI-H226 cell line to assess the compounds' ability to inhibit TEAD and cell growth. Compounds were also screened against the non-responsive NCI-H28 cell line to ascertain whether the inhibition of cell growth was due to inhibition of the target TEAD or whether the inhibition was due to off-target cytotoxicity.
Both NCI-H226 and NCI-H28 cells were grown at 37° C. with 5% CO2 using Growth Medium 1.
Anti-proliferative effect of compounds that inhibits TEAD activity measured by CTG
1) Assay ready plates (ARPs) were prepared by Echo acoustic liquid handler. For each compound, duplicate of 10-point half-log dilution series were dispensed in a 384-well microplate (Corning 3571).
3) Before use, ARPs were allowed to warm up to room temperature for 30 min.
4) ARPs were spun for 5 minutes at 1500RPM before removing the plate seals.
5) NCI-H226 or NCI-H28 cells were harvested from culture in Assay Medium 1 and the multidrop Combi reagent dispenser was used to seed cells at 500 cells per 50ul in each well of the ARPs and one Corning 3571 plate without compounds for Time 0 (TO) readout.
6) The TO plate was incubated for 2 hours at 37° C. with 5% CO2 to allow cells to settle, then the CTG Assay was performed.
7) All ARPs were incubated for 72 hours at 37° C. with 5% CO2, then the CTG Assay was performed for Time 72H (T72) readout.
8) CTG Assay: Bravo liquid handler (Agilent) was used to add 25ul of CTG 2.0 to all columns of the plate except for Column 24, which was used to subtract out the background. After CTG addition, plates were placed on shaker at 800RPM for 15 minutes at room temperature and kept in the dark. Luminescence was measured using EnVision multilabel plate reader with ultra-sensitive detection module.
9) Data Analysis: First background luminescence (no CTG wells) was subtracted from luminescence reading of all wells, then TO luminescence was subtracted from T72 luminescence. To compare anti-proliferative effect of compounds, GI50 was obtained by fitting dose response curves with nonlinear regression curve fit.

[2] = biological target: TEAD1 protein (YAP Binding Domain) (Homo sapiens, UniProt P28347); test: biochemical
Chain of TEAD1 protein (YAP Binding Domain) (P28347 167-426 limits assumed): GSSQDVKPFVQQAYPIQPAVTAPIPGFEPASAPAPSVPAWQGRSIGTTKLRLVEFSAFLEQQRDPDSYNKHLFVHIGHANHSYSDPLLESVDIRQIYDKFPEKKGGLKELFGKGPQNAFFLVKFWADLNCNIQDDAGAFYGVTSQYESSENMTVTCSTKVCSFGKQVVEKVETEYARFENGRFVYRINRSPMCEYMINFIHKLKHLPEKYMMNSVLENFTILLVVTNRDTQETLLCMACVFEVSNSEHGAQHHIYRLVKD
Procedure: Compound Displacement Assay.
A TEAD1 lipid pocket displacement assay was carried out according to the following protocol. Purified His-tagged TEAD1 protein (YAP Binding Domain) was pre-mixed with a Cy5-probe (Cy5-conjugated to a small molecule that binds in the TEAD1 lipid pocket) and Terbium-labeled anti-His antibody (Cisbio Cat 61HI2TLB). The binding of the Cy5-probe to anti-His-Tb/His-tag TEAD1 complex yielded a TR-FRET signal. […] After 60 minutes incubation at room temperature of compounds with the His-TEAD1/anti-His-Tb/Cy5-probe complex, the plate was read on a plate reader (BMG ClarioStar Cat 430-1300) using TR-FRET mode with wavelengths of 665 nm/620 nm. The potency of compounds as TEAD1 lipid pocket binders was determined by IC50 value generated using a non-linear 4 parameter curve fit.

SMILES	GI50 [1] [nM]	IC50 [2] [nM]
C#Cc1cccc2cc(C(=O)N[C@@H](C)c3ccccn3)cnc12 [Compound 30, (S)-8-ethynyl-N-(1-(pyridin-2-yl)ethyl)quinoline-3-carboxamide]	> 5000	> 500
C[C@H](NC(=O)c1cnc2c(C#CC(C)(C)C)cccc2c1)c1ccccn1 [Compound 31, (S)-8-(3,3-dimethylbut-1-yn-1-yl)-N-(1-(pyridin-2-yl)ethyl)quinoline-3-carboxamide]	1000 to 5000	> 500
COc1ccc2c(N3CCC(C(F)(F)F)CC3)nc(C(=O)N[C@H](C)CO)cc2c1 [Compound 67, (R)-N-(1-hydroxypropan-2-yl)-6-methoxy-1-(4-(trifluoromethyl)piperidin-1-yl)isoquinoline-3-carboxamide]	> 5000	> 500
COc1ccc2c(N3CCC(C(F)(F)F)CC3)nc(C(=O)O)cc2c1 [Compound 68, 6-methoxy-1-(4-(trifluoromethyl)piperidin-1-yl)isoquinoline-3-carboxylic acid]	> 5000	> 500
COc1cc(N2CCC(C(C)(C)C)CC2)c2ncc(C(=O)N[C@H](C)CO)cc2c1 [Compound I-2, (R)-8-(4-(tert-butyl)piperidin-1-yl)-N-(1-hydroxypropan-2-yl)-6-methoxyquinoline-3-carboxamide]	≤ 500	300 to 500
COc1cc(N2CCC3(CC2)CC3)c2ncc(C(=O)N[C@H](C)CO)cc2c1 [Compound I-3, (R)-N-(1-hydroxypropan-2-yl)-6-methoxy-8-(6-azaspiro[2.5]octan-6-yl)quinoline-3-carboxamide]	500 to 1000	150 to 300
COc1cc(N2CCC3(CCCC3)CC2)c2ncc(C(=O)N[C@H](C)CO)cc2c1 [Compound I-4, (R)-N-(1-hydroxypropan-2-yl)-6-methoxy-8-(8-azaspiro[4.5]decan-8-yl)quinoline-3-carboxamide]	500 to 1000	150 to 300
COC[C@H](C)NC(=O)c1cnc2c(N3CCC(CC(F)(F)F)CC3)cc(OC)cc2c1 [Compound I-5, (S)-6-methoxy-N-(1-methoxypropan-2-yl)-8-(4-(2,2,2-trifluoroethyl)piperidin-1-yl)quinoline-3-carboxamide]	1000 to 5000	< 150
COc1cc(N2CCC3(CC2)CC(F)(F)C3)c2ncc(C(=O)N[C@H](C)CO)cc2c1 [Compound I-6, (R)-8-(2,2-difluoro-7-azaspiro[3.5]nonan-7-yl)-N-(1-hydroxypropan-2-yl)-6-methoxyquinoline-3-carboxamide]	500 to 1000	< 150
COc1cc(N2CCC(C(F)F)CC2)c2ncc(C(=O)N[C@H](C)CO)cc2c1 [Compound I-7, (R)-8-(4-(difluoromethyl)piperidin-1-yl)-N-(1-hydroxypropan-2-yl)-6-methoxyquinoline-3-carboxamide]	1000 to 5000	150 to 300
COc1cc(N2CCN(CC(F)(F)F)CC2)c2ncc(C(=O)N[C@H](C)CO)cc2c1 [Compound I-8, (R)-N-(1-hydroxypropan-2-yl)-6-methoxy-8-(4-(2,2,2-trifluoroethyl)piperazin-1-yl)quinoline-3-carboxamide]	> 5000	> 500
COC[C@H](C)NC(=O)c1cnc2c(N3CCC(C(F)(F)F)CC3)cc(OC)cc2c1 [Compound I-9, (S)-6-methoxy-N-(1-methoxypropan-2-yl)-8-(4-(trifluoromethyl)piperidin-1-yl)quinoline-3-carboxamide]	≤ 500	150 to 300
COc1cc(N2CCC(C(F)(F)F)CC2)c2ncc(C(=O)NC(C)(C)CO)cc2c1 [Compound I-10, N-(1-hydroxy-2-methylpropan-2-yl)-6-methoxy-8-(4-(trifluoromethyl)piperidin-1-yl)quinoline-3-carboxamide]	1000 to 5000	300 to 500
COc1cc(N2CCC(C(F)(F)F)CC2)c2ncc(C(=O)N3CC(O)C3)cc2c1 [Compound I-11, (3-hydroxyazetidin-1-yl)(6-methoxy-8-(4-(trifluoromethyl)piperidin-1-yl)quinolin-3-yl)methanone]	1000 to 5000	> 500
COc1cc(N2CCC(C(F)(F)F)CC2)c2ncc(C(=O)N[C@@H](C)COC(F)(F)F)cc2c1 [Compound I-12, (S)-6-methoxy-N-(1-(trifluoromethoxy)propan-2-yl)-8-(4-(trifluoromethyl)piperidin-1-yl)quinoline-3-carboxamide]	≤ 500	> 500
CC[C@H](CO)NC(=O)c1cnc2c(N3CCC(C(F)(F)F)CC3)cc(OC)cc2c1 [Compound I-13, (R)-N-(1-hydroxybutan-2-yl)-6-methoxy-8-(4-(trifluoromethyl)piperidin-1-yl)quinoline-3-carboxamide]	≤ 500	< 150
CC[C@@H](CO)NC(=O)c1cnc2c(N3CCC(C(F)(F)F)CC3)cc(OC)cc2c1 [Compound I-14, (S)-N-(1-hydroxybutan-2-yl)-6-methoxy-8-(4-(trifluoromethyl)piperidin-1-yl)quinoline-3-carboxamide]	1000 to 5000	150 to 300
COc1cc(-c2ccc(OC(F)(F)F)cc2)c2ncc(C(=O)N[C@H](C)CO)cc2c1 [Compound I-15, (R)-N-(1-hydroxypropan-2-yl)-6-methoxy-8-(4-(trifluoromethoxy)phenyl)quinoline-3-carboxamide]	≤ 500	< 150
COc1cc(-c2ccc(OC(C)(C)C)cc2)c2ncc(C(=O)N[C@H](C)CO)cc2c1 [Compound I-16, (R)-8-(4-(tert-butoxy)phenyl)-N-(1-hydroxypropan-2-yl)-6-methoxyquinoline-3-carboxamide]	1000 to 5000	150 to 300
COc1cc(-c2ccc(OC(F)F)cc2)c2ncc(C(=O)N[C@H](C)CO)cc2c1 [Compound I-17, (R)-8-(4-(difluoromethoxy)phenyl)-N-(1-hydroxypropan-2-yl)-6-methoxyquinoline-3-carboxamide]	≤ 500	< 150
COc1cc(-c2ccc(OCC(F)(F)F)cc2)c2ncc(C(=O)N[C@H](C)CO)cc2c1 [Compound I-18, (R)-N-(1-hydroxypropan-2-yl)-6-methoxy-8-(4-(2,2,2-trifluoroethoxy)phenyl)quinoline-3-carboxamide]	1000 to 5000	150 to 300
COc1cc(-c2ccc(Oc3ccccc3)cc2)c2ncc(C(=O)N[C@H](C)CO)cc2c1 [Compound I-19, (R)-N-(1-hydroxypropan-2-yl)-6-methoxy-8-(4-phenoxyphenyl)quinoline-3-carboxamide]	> 5000	150 to 300
COc1cc(-c2ccc(OC3CC3)cc2)c2ncc(C(=O)N[C@H](C)CO)cc2c1 [Compound I-20, (R)-8-(4-cyclopropoxyphenyl)-N-(1-hydroxypropan-2-yl)-6-methoxyquinoline-3-carboxamide]	≤ 500	< 150
COc1cc(-c2ccc(OC(F)(F)F)cc2F)c2ncc(C(=O)N[C@H](C)CO)cc2c1 [Compound I-21, (R)-8-(2-fluoro-4-(trifluoromethoxy)phenyl)-N-(1-hydroxypropan-2-yl)-6-methoxyquinoline-3-carboxamide]	≤ 500	
CC(CO)NC(=O)c1ccc2c(OCC3CCC(F)(F)CC3)cccc2c1 (stereo not drawn) [Compound I-22, 5-((4,4-Difluorocyclohexyl)methoxy)-N-(1-hydroxypropan-2-yl)-2-naphthamide]	≤ 500	150 to 300
C[C@H](CO)NC(=O)c1cnc2c(N3CCC4(CC3)CC4)cc(OC(F)F)cc2c1 [Compound I-27, (R)-6-(difluoromethoxy)-N-(1-hydroxypropan-2-yl)-8-(6-azaspiro[2.5]octan-6-yl)quinoline-3-carboxamide]	1000 to 5000	
CC(CO)NC(=O)c1ccc2c(OCc3ccc(C(F)(F)F)cc3)cccc2c1 (stereo not drawn) [Compound I-44, N-(1-hydroxypropan-2-yl)-5-((4-(trifluoromethyl)benzyl)oxy)-2-naphthamide]	> 5000	
